The target of one assay is T1, CDK9/Cyclin T1 (Homo sapiens, UniProt P50750).
T1 construct: purchased Invitrogen
The assay can be described thus: LanthaScreen Eu Kinase Binding Assay, CDK9/Cyclin T1. The note with it: tracer 236, read-out: Affinity (Kd) CDK9/Cyclin T1. The procedure, abridged:
(§1)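 TR-FRET competition binding with Alexa Fluor 647 tracer and Eu-anti-GST antibody; e.g. CDK2/Cyclin A 15 nM with tracer 236 60 nM (working solutions). Kinase buffer: HEPES 20 mM pH 8.0, MgCl2 10 mM, DTT 1 mM, Brij-35 0.01%; 8-point 1:3 series, 1 h at room temperature; Kd from sigmoidal dose-response curves.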

Another assay addresses T2, CDK7/CyclinH/Mat1 (Homo sapiens, UniProt P50613).
T2 construct: purchased Carna Biosciences
The assay can be described thus: LanthaScreen Eu Kinase Binding Assay, CDK7. The note with it: tracer 236, read-out: Affinity (Kd) CDK7. The procedure, abridged: as §1
Background: In TR-FRET formats the signal depends on donor and acceptor labels being close together.

The target of a further assay is T3, CDK9/Cyclin K (Homo sapiens, UniProt P50750).
T3 construct: purchased Invitrogen
T3 sequence (P50750 whole entry): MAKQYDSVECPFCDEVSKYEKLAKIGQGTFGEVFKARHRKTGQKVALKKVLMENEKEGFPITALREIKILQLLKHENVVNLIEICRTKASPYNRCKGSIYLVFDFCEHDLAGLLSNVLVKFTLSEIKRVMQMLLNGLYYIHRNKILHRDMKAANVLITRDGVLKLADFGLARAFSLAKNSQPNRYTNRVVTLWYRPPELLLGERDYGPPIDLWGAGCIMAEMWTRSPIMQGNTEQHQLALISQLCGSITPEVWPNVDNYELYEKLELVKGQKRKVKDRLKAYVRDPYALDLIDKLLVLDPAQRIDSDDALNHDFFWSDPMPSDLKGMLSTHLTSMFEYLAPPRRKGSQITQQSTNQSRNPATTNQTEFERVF
T3 sequence (O75909 whole entry partner): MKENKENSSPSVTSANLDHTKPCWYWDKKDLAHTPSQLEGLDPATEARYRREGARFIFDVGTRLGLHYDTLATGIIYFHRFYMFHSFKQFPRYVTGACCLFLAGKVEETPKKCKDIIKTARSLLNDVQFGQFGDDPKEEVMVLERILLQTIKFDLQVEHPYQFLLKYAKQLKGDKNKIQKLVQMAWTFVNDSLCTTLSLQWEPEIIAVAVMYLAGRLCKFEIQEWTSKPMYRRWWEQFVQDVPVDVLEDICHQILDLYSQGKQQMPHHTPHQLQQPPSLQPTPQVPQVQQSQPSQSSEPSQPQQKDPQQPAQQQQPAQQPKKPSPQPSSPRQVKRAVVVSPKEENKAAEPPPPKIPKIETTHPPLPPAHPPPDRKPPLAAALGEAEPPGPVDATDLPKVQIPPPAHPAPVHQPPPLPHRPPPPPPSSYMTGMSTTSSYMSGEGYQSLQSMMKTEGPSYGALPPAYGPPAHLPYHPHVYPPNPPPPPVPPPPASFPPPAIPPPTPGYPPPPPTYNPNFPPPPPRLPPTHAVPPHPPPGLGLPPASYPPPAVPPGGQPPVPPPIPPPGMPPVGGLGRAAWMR
The assay can be described thus: LanthaScreen Eu Kinase Binding Assay, CDK9/Cyclin K. The settings on record: tracer 236, read-out: Affinity (Kd) CDK9/Cyclin K. The procedure, abridged: as §1

In the next assay the target is T4, CDK2/CyclinA (Homo sapiens, UniProt P24941).
T4 construct: purchased Proqinase
Briefly: Lance Ultra KinaSelect Assay, CDK2. It counts as biochemical. The settings on record: ATP 3 μM, read-out: Inhibition (IC50) CDK2. As for the experimental part: This protocol describes how the Lance Ultra KinaSelect Assay was performed to determine half maximal inhibitory concentration (IC50) of compounds of general formula (I) and CDK/Cyclin complexes. The principle behind this enzymatic assay is based upon the phosphorylation of the ULight-Peptide Substrat. It is detected by using a specific EU-labeled anti-phospho peptide antibody. The binding of the Eu-labeled anti-phospho peptide antibody to the phosphorylated U Light labeled peptide gives rise to a FRET-signal. Binding of an inhibitor to the kinase prevents phosphorylation of the ULight-MBP Substrat, resulting in a loss of FRET.
The compounds of general formula (I) summarized in Table 5 were diluted from a 10 mM DMSO stock solution 1:10 in a total volume of 15 μL DMSO. This compound predilution was then serial diluted 1:3 over 8 steps in DMSO and briefly spun down. Each compound solution was now diluted 1:20 in Enzymatic Buffer (HEPES: 50 mM, pH: 7.5; MgCl2: 10 mM; EGTA: 1 mM; DTT: 2 mM; Tween-20: 0.01%), mixed thoroughly and spun down. For every sample, 2 μL of the diluted compound were mixed with 6 μL CDK/Cyclin/Substrat solution and […] in a well of a small volume 384 well plate (Corning Incorporated, Corning, N.Y., USA; order no. 3673). […] For positive controls, in each well 2 μL of DMSO solution (1% final DMSO assay concentration) was mixed with 6 μL CDK/Cyclin/Substrat (appropriate final concentration see Table 3) and 2 μL Tracer ATP solution (appropriate final concentration see Table 3). Positive and negative controls were calculated from at least 8 different sample wells. The 384 well plates were mixed in a Teleshaker plate mixer (Beckman Coulter, Brea, Calif., USA) at 2000 rpm for 40 sec, and incubated for 1 h at room temperature. Before reading, 10 μL detection buffer (Lance Detection Buffer 1×; EDTA: […]; Eu-Anti-P-MBP: see Table 3) was added. The FRET signal was measured at 340 nm excitation, 665 nm and 615 nm emission (for the kinase tracer and LanthaScreen Eu-AB, respectively) with an Envision spectrophotometer (Perkin Elmer, Waltham, Mass., USA) with 50 μs delay and 300 μs integration time. IC50 values were determined from the sigmoidal dose response curves with the software Quattro Workflow (Quattro GmbH, Munich, Germany).

The test system of assay [1] is LPS-induced TNF alpha release in PBMCs. Briefly: TNF alpha release assay. The class given is cell-based. The settings on record: Homo sapiens, PBMC, 6 h, 1 μg/mL LPS. As for the experimental part:
Freshly isolated peripheral blood mononuclear cells (PBMCs) were seeded in 96-well cell culture plates with 200,000 cells in 100 μl cell culture medium (DMEM cell culture medium+glutamine from PAN Biotech GmbH, Aidenbach, Germany) supplemented with 10% fetal calf serum (PAA Laboratories GmbH, Pasching, Austria) per well and incubated overnight at 37° C., 5% CO2. To each well, 100 μL cell culture medium with 2× concentrated test compounds diluted from 10 mM DMSO stocks, or 100 μL DMEM with 0.4% DMSO for control wells, was added. The compounds of general formula (I) summarized in Table 6 were used in this assay. After incubation for 1 h at 37° C., 5% CO2, cells were stimulated with 1 μg/mL LPS (Lipopolysaccharides, Sigma, catalog #L4391-1MG; 1 mg/ml stock solution), or left untreated for negative controls, and plates were incubated for 6 h at 37° C./5% CO2. The cell culture plates were centrifuged at 2000 rpm for 5 minutes, and supernatants were transferred to fresh 96-well polypropylene plates. 25 µL of supernatants were transferred into 96-well-plates of the human TNF alpha-tissue culture kit (Meso Scale Discovery, Gaithersburg, Md., USA), and manufacturer's instructions were followed for analysis of TNF alpha levels. Chemoluminescence was measured in the Mesoscale Sector Imager, and EC50 values were calculated with the software Excel Fit (IDBS, Guildford, UK) from 2-fold dilution series comprising at least 6 concentrations in duplicates.

SMILES strings stand for the structures.

T2 sequence (P50613 whole entry): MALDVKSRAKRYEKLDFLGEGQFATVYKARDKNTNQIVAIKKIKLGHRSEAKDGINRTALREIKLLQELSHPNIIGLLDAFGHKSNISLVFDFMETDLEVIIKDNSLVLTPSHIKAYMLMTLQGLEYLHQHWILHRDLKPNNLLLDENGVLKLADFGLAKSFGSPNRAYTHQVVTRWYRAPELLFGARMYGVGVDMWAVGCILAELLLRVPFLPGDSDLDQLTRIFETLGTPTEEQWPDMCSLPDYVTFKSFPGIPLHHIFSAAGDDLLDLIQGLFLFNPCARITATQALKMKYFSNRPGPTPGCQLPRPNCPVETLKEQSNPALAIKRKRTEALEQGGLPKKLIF
T2 sequence (P51946 whole entry partner): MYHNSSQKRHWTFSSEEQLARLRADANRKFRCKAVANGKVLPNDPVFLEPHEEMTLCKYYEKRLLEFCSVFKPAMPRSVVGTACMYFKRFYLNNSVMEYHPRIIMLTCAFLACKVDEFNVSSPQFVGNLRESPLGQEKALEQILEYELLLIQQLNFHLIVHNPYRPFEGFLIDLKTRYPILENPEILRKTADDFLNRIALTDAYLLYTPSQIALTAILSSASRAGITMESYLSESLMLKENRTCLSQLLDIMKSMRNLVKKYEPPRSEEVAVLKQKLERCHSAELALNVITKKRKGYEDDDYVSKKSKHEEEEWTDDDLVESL
T2 sequence (P51948 whole entry partner): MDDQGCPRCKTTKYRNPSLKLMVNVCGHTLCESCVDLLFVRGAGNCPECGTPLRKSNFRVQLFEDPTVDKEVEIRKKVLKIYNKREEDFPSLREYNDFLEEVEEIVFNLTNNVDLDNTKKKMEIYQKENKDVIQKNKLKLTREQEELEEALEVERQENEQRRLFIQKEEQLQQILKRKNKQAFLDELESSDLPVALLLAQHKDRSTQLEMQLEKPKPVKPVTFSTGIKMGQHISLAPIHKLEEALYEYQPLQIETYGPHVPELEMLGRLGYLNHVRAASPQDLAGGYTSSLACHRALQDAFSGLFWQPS
T1 sequence (P50750 whole entry): as the sequence (P50750 whole entry) above
T1 sequence (O60563 whole entry partner): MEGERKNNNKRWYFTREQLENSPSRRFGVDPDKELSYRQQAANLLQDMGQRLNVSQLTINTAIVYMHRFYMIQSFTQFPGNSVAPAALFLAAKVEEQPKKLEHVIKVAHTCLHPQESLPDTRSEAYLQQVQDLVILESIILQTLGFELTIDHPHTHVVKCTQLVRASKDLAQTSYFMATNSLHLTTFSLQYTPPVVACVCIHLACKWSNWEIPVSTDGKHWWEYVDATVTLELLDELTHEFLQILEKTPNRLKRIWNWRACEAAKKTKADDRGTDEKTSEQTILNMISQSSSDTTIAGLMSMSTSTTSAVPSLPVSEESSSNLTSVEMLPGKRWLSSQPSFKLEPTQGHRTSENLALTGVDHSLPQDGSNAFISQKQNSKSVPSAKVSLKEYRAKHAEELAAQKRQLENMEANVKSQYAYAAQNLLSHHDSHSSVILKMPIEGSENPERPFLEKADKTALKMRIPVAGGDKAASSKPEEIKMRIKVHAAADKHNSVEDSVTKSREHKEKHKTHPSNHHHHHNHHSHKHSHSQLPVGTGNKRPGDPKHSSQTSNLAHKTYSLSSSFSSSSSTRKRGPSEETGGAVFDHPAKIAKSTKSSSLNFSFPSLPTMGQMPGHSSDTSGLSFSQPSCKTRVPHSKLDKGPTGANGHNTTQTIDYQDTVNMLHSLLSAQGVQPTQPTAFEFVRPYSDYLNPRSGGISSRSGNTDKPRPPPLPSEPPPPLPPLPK

As usually defined, the IC50 is the point on the concentration scale where inhibition reaches its midpoint. As for `COc1ccccc1-c1ncnc(Nc2cccc(CCS(N)(=O)=O)c2)n1` [Compound D1, 2-[3-((4-(2-Methoxyphenyl)-1,3,5-triazin-2-yl)amino)phenyl]ethanesulfonamide], the Kd on CDK9/Cyclin T1 was 32.8 nM; at CDK7/CyclinH/Mat1 it was more than 10000 nM; on CDK9/Cyclin K, 99.5 nM. Also, the IC50 amounted to 515 nM at CDK2/CyclinA and 5370 nM in assay [1].
As to `COc1ccccc1-c1ncnc(Nc2cccc(NS(C)(=O)=O)c2)n1` [Compound K1, N-[3-((4-(2-Methoxyphenyl)-1,3,5-triazin-2-yl)amino)phenyl]-methanesulfonamide], the Kd is 38.5 nM at CDK9/Cyclin T1, more than 30000 nM at CDK7/CyclinH/Mat1 and 35.9 nM on CDK9/Cyclin K. Also, the figures for the IC50 (on CDK2/CyclinA; in assay [1]) were 826 nM and 4420 nM, respectively.

The values above are taken from patent US20130079345A1, “[…] ACTIVE DISUBSTITUTED TRIAZINE DERIVATIVES” (BAYER INTELLECTUAL PROPERTY GMBH, priority 2010, published 2013).
